This note sets out measurements from patent US7223759B2, “Antibacterial 3,5-diaminopiperidine-substituted aromatic and heteroaromatic compounds” (Anadys Pharmaceuticals, Inc., priority 2003, dated 2007).

SMILES strings stand for the structures. Where only a bound is given, the exact number is not on record here.

The first test concerns Escherichia coli (ATCC25922) or Staphylococcus aureus (ATCC25923). The test is described as follows: Antibacterial MIC, microdilution method in Mueller-Hinton medium. The class given is cell-based. The settings on record: Escherichia coli, 18 h, MIC in E. coli or S. aureus; two-fold serial dilutions 64 to 0.5 μg/ml in duplicate; 18 hours of incubation at 35° C.; read-out: Potency (MIC). A digest of the protocol: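 Read after 18 h incubation at 35° C, MIC is the lowest compound level that blocked growth. Compounds were tested in duplicate over 64–0.5 μg/ml two-fold dilutions using Mueller-Hinton microdilution per NCCLS standard.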
With `Cl.N[C@@H]1C[C@H](N)CN(c2nc(N3C[C@H](N)C[C@H](N)C3)nc(N3CCc4cc(Br)ccc43)n2)C1` [4-[4-(4,6-Bis-((3R,5S)-3,5-diamino-piperidin-1-yl)-[1,3,5]triazin-2-yl)-piperiazin-1-yl]-phenol], the MIC was under 64 µg/mL.

As for `Cc1ccc(S(=O)(=O)NC(Cc2ccccc2)C(=O)Nc2ccc(Nc3nc(N4CCCCC4)nc(N4CCCCC4)n3)cc2O)cc1.Cl` [N-{3-hydroxy-4-[3-phenyl-2-(toluene-4-sulfonylamino)-propionylamino]-phjenyl}-4,6-Bis-((3R,5S)-3,5-diamino-piperidin-1-yl)-[1,3,5]triazine-2-amine], the MIC is under 16 µg/mL.

As for `Cl.N[C@@H]1C[C@H](N)CN(c2nc(Nc3cccc(Br)c3)nc(N3C[C@H](N)C[C@H](N)C3)n2)C1` [N-(3-bromo-phenyl)-4,6-Bis-((3R,5S)-3,5-diamino-piperidin-1-yl)-[1,3,5]triazine-2-amine], the MIC was under 64 µg/mL.

As for `N[C@@H]1C[C@H](N)CN(c2cc(N3C[C@H](N)C[C@H](N)C3)cc(N(c3ccc([N+](=O)[O-])cc3)c3ccc([N+](=O)[O-])cc3)c2)C1` [(3,5-Bis-((3R,5S)-3,5-diamino-piperidin-1-yl)-phenyl)-bis-(4-nitro-phenyl)-amine], the MIC is under 64 µg/mL.

Regarding `Cl.O=C(Nc1ccc(Nc2nc(N3CCCCC3)nc(N3CCCCC3)n2)cc1Cl)c1ccc(C(F)(F)F)nc1O` [N-{3-chlorro-4-[(2-hydroxy-6-trifluoromethyl-pyridine-3-carbonyl)-amino]-phenyl}-4,6-Bis-((3R,5S)-3,5-diamino-piperidin-1-yl)-[1,3,5]triazine-2-amine], the MIC is under 16 µg/mL.

`CSc1cccc(Nc2nc(N3C[C@H](N)C[C@H](N)C3)nc(N3C[C@H](N)C[C@H](N)C3)n2)c1.Cl` [N-(3-methyylsulfanyl-phenyl)-4,6-Bis-((3R,5S)-3,5-diamino-piperidin-1-yl)-[1,3,5]triazine-2-amine]: the MIC is under 64 µg/mL.

Take `Cc1csc(Nc2nc(N3C[C@H](N)C[C@H](N)C3)nc(N3C[C@H](N)C[C@H](N)C3)n2)n1.Cl` [N-(4-methyl-thiazol-2-yl)-4,6-Bis-((3R,5S)-3,5-diamino-piperidin-1-yl)-[1,3,5]triazine-2-amine]: the MIC is over 64 µg/mL.

For `CCC(=O)Nc1ccc(Nc2nc(N3C[C@H](N)C[C@H](N)C3)nc(N3C[C@H](N)C[C@H](N)C3)n2)cc1O` [N-(3-hydroxy-4-propionylamino-phenyl)-4,6-Bis-((3R,5S)-3,5-diamino-piperidin-1-yl)-[1,3,5]triazine-2-amine], the MIC is under 64 µg/mL.

On to `Cc1cc(C)c(S(=O)(=O)Nc2ccc(Nc3nc(N4CCCCC4)nc(N4CCCCC4)n3)cc2O)c(C)c1.Cl` [N-[3-hydroxy-(2,4,6-trimethyl-benzenesulfonylamino)-phenyl]-4,6-Bis-((3R,5S)-3,5-diamino-pperidin-1-yl)-[1,3,5]triazine-2-amine], for which the MIC was under 64 µg/mL.

As to `N[C@@H]1C[C@H](N)CN(c2nc(Nc3ccccc3O)nc(N3C[C@H](N)C[C@H](N)C3)n2)C1` [N-(2-hydroxy-phenyl)-4,6-Bis-((3R,5S)-3,5-diamino-piperidin-1-yl)-[1,3,5]triazine-2-amine], the MIC is over 64 µg/mL.

Regarding `Cc1ccc(C(=O)Nc2ccc(Nc3nc(N4CCCCC4)nc(N4CCC(N5CCCC5)CC4)n3)cc2O)cc1` [N-{4-[4-((3R,5S)-3,5-Diamino-piperidin-1-yl)-6-(4-pyrrolidin-1-yl-piperidin-1-yl)-[1,3,5]triazin-2-ylamino]-2-hydroxy-phhenyl}-4-methyl-benzamide], the MIC is under 64 µg/mL.

Take `Cl.O=C(CCCCC1SCC2NC(=O)NC21)Nc1ccc(Nc2nc(N3CCCCC3)nc(N3CCCCC3)n2)cc1O` [5-((S)-2-Oxo-hexahydro-thieno[3,4-d]imidazol-2-yl)-penanoicacid {4-[4-((3S,5S)-3-amino-5-azido-piperidin-1-yl)-6-((3S,5R)-3,5-diamino-piperidin-1-yl)-[1,3,5]triazin-2-ylamino]-2-hydroxy-phenyl}-amide]: the MIC was over 64 µg/mL.

The test is the same for the next values; noted with them: Escherichia coli, 18 h, read-out: Potency (MIC).
On to `CN(C)c1ccc(C(=O)Nc2ccc(Nc3nc(N4C[C@H](N)C[C@H](N)C4)nc(N4C[C@H](N)C[C@H](N)C4)n3)cc2O)c(O)c1` [N-[4-(4-dimethylamino-2-hydroxy-benzoylamino)-3-hydroxy-phenyl]-4,6-Bis-((3R,5S)-3,5-diamino-piperidin-1-yl)-[1,3,5]triazine-2-amine], for which the minimal inhibitory concentration (MIC) is under 16 µg/mL.

On to `Cc1cc(=O)oc2cc(Nc3nc(N4C[C@H](N)C[C@H](N)C4)nc(N4CC[C@H](O)[C@H](CN)C4)n3)ccc12` [7-[4-((3R,4S)-3-Aminomethyl-4-hydroxy-piperidin-1-yl)-6-((3R,5S)-3,5-diamino-piperidin-1-yl)-[1,3,5]triazin-2-ylamino]-4-methyl-chromen-2-one], for which the minimum inhibitory concentration (MIC) is over 64 µg/mL.

On to `N[C@@H]1C[C@H](N)CN(c2nc(Nc3ccc(C(=O)CC(=O)Nc4ccccc4)cc3)nc(N3C[C@H](N)C[C@H](N)C3)n2)C1` [N-[4-(2-phenylcarbamoyl-acetyl)-phenyl]-4,6-Bis-((3R,5S)-3,5-diamino-piperidin-1-yl)-[1,3,5]triazine-2-amine], for which the MIC is under 16 µg/mL.

As to `N[C@@H]1C[C@H](N)CN(c2nc(Nc3ccc(C(=O)CC(=O)Nc4ccc(Cl)cc4F)cc3)nc(N3C[C@H](N)C[C@H](N)C3)n2)C1` [N-{4-[2-(4-chloro-2-fluoro-phenylcarbamoyl)-acetyl]-phenyl}-4,6-Bis-((3R,5S)-3,5-diamino-piperidin-1-yl)-[1,3,5]triazine-2-amine], the MIC was under 16 µg/mL.

As for `N[C@@H]1C[C@H](N)CN(c2nc(Nc3ccc(NS(=O)(=O)c4ccc5c(c4)CN(C(=O)C(F)(F)F)CC5)c(O)c3)nc(N3C[C@H](N)C[C@H](N)C3)n2)C1` [N-{3-hydroxy-4-[2-(2,2,2-trifluoro-acetyl)-1,2,3,4-tetrahydro-isoquinoline-7-sulfonylamino]-phenyl}-4,6-Bis-((3R,5S)-3,5-diamino-piperidin-1-yl)-[1,3,5]triazine-2-amine], the MIC is over 64 µg/mL.

Turning to `CN(C)c1ccc(C(=O)Nc2ccc(Nc3nc(N4C[C@H](N)C[C@H](N)C4)nc(N4C[C@H](N)C[C@H](N)C4)n3)cc2)c(O)c1` [N-[4-(4-dimethylamino-2-hydroxy-benzoylamino)-phenyl]-4,6-Bis-((3R,5S)-3,5-diamino-piperidin-1-yl)-[1,3,5]triazine-2-amine], the MIC was under 16 µg/mL.

`COc1nc(Nc2ccc(NC(=O)c3ccc(C)cc3)c(O)c2)nc(N2C[C@H](N)C[C@H](N)C2)n1` [N-{4-[4-((3R,5S)-3,5-Diamino-piperidin-1-yl)-6-methoxy-[1,3,5]triazin-2-ylamino]-2-hydroxy-phenyl}-4-methyl-benzamide]: the MIC was under 64 µg/mL.

`NC(=O)c1ccc(Nc2nc(N3C[C@H](N)C[C@H](N)C3)nc(N3C[C@@H](N)C[C@H]3CO)n2)cc1O` [4-[4-((2S,4S)-4-Amino-2-hydroxymethyl-pyrrolidin-1-yl)-6-((3R,5S)-3,5-diamino-piperidin-1-yl)-[1,3,5]triazin-2-ylamino]-2-hydroxy-benzamide]: the MIC was over 64 µg/mL.

Consider `Cc1cc(=O)oc2cc(Nc3nc(N4C[C@H](N)C[C@H](N)C4)nc(N4C[C@H](N)C[C@H](N)C4)n3)ccc12` [N-(4-methyl-2-oxo-2H-chromen-7-yl)-4,6-Bis-((3R,5S)-3,5-diamino-piperidin-1-yl)-[1,3,5]triazine-2-amine], for which the MIC is under 16 µg/mL.

`Cc1cc(=O)oc2cc(NC(=O)c3ccc(Nc4nc(N5C[C@H](N)C[C@H](N)C5)nc(N5C[C@H](N)C[C@H](N)C5)n4)cc3O)ccc12` [N-[3-hydroxy-4-(4-methyl-2-oxo-2H-chromen-7-ylcarbamoyl)-phenyl]-4,6-Bis-((3R,5S)-3,5-diamino-piperidin-1-yl)-[1,3,5]triazine-2-amine]: the MIC was under 16 µg/mL.

For the compound `Cc1cc(Nc2nc(N3C[C@H](N)C[C@H](N)C3)nc(N3C[C@H](N)C[C@H](N)C3)n2)cc(Cl)c1NC(=O)c1ccc(Cl)cc1O` [N-[3-chloro-4-(4-chloro-2-hydroxy-benzoylamino)-5-methyl-phenyl]-4,6-Bis-((3R,5S)-3,5-diamino-piperidin-1-yl)-[1,3,5]triazine-2-amine], the MIC is under 16 µg/mL.

Take `N[C@@H]1C[C@H](N)CN(c2nc(Nc3ccc(NC(=O)c4cccc(Br)c4)c(O)c3)nc(N3C[C@H](N)C[C@H](N)C3)n2)C1` [N-[4-(3-bromo-benzoylamino)-3-hydroxy-phenyl]-4,6-Bis-((3R,5S)-3,5-diamino-piperidin-1-yl)-[1,3,5]triazine-2-amine]: the MIC is under 16 µg/mL.

Regarding `Cc1ccc(S(=O)(=O)N(Cc2ccccc2)c2ccc(Nc3nc(N4C[C@H](N)C[C@H](N)C4)nc(N4C[C@@H](N)C[C@H]4CO)n3)cc2O)cc1` [N-{4-[4-((2S,4S)-4-Amino-2-hydroxymethyl-pyrrolidin-1-yl)-6-((3R,5S)-3,5-diamino-piperidin-1-yl)-[1,3,5]triazin-2-ylamino]-2-hydroxy-phenyl}-N-benzyl-4-methyl-benzenesulfonamide], the MIC is under 64 µg/mL.

With `NCCNc1nc(Nc2ccc(NC(=O)c3ccc4ccccc4c3O)cc2)nc(N2C[C@H](N)C[C@H](N)C2)n1` [1-Hydroxy-naphthalene-2-carboxylicacid {4-[4-(2-amino-ethylamino)-6-((3R,5S)-3,5-diamino-piperidin-1-yl)-[1,3,5]triazin-2-ylamino]-phenyl}-amide], the minimum inhibitory concentration (MIC) is under 16 µg/mL.

On to `N[C@@H]1C[C@H](N)CN(c2nc(Nc3ccc(NC(=O)c4ccc(Cl)cc4O)c(O)c3)nc(N3C[C@H](N)C[C@H](N)C3)n2)C1` [N-[4-(4-chloro-2-hydroxy-benzoylamino)-3-hydroxy-phenyl]-4,6-Bis-((3R,5S)-3,5-diamino-piperidin-1-yl)-[1,3,5]triazine-2-amine], for which the MIC was under 16 µg/mL.

What is called MIC is the least concentration at which growth counts as inhibited.
